From patent publication US6413947B1, “Anilide derivative, production and use thereof” (Takeda Chemical Industries, Ltd., priority 1997, dated 2002)

melting point | Compound
162 to 164 °C | COc1ccc(-c2ccc3c(c2)C=C(C(=O)Nc2ccc(CN(C)C4CCOCC4)cc2)CCS3)cc1 [Compound 282, 7-(4-methoxyphenyl)-N-[4-[N-methyl-N-(tetrahydropyran-4-yl)aminomethyl]phenyl]-2,3-dihydro-1-benzothiepine-4-carboxamide]
161 to 162 °C | Cc1ccc(-c2ccc3c(c2)C=C(C(=O)Nc2ccc(CSC4CCCCC4)cc2)CCO3)cc1 [Compound 53, N-(4—(cyclohexylthiomethyl)-phenyl)-7—(4-methylphenyl)-2,3-dihydro-1-benzoxepine-4-carboxamide]
154 to 155 °C | Cc1ccc(-c2ccc3c(c2)C=C(C(=O)Nc2ccc(CNCC4CCCCC4)cc2)CCO3)cc1 [Compound 122, N-(4—((cyclohexylmethyl)aminomethyl)phenyl)-7—(4-methylphenyl)-2,3-dihydro-1-benzoxepine-4-carboxamide]
249 to 250 °C | CN1CCCN(C)P1(=O)Cc1ccc(NC(=O)C2=Cc3cc(-c4ccccc4)ccc3CC2)cc1 [Compound 89, 2—(4—(3,4-dihydro-7-phenyl-naphthalene-2-carbonyl-amino)benzyl)-1,3-dimethyl-1,3,2-diazaphosphorinane-2-oxide]
150 to 151 °C | Cc1ccc(-c2ccc3c(c2)C=C(C(=O)Nc2ccc(CN(CCO)CCO)cc2)CC3)cc1 [Compound 51, N-[4-[N,N-bis(2-hydroxyethyl)-aminomethyl]phenyl]-7—(4-methylphenyl)-3,4-dihydronaphthalene-2-carboxamide]
215 to 217 °C | Cc1ccc(-c2ccc3c(c2)C=C(C(=O)Nc2ccc(C(O)c4ccccn4)cc2)CCO3)cc1 (centres unmarked) [Compound 166, N-[4-[hydroxy(2-pyridyl)-methyl]phenyl]-7—(4-methylphenyl)-2,3-dihydro-1-benzoxepine-4-carboxamide]
187 to 189 °C | Cc1ccc(-c2ccc3c(c2)C=C(C(=O)Nc2ccc(CN4CCCCC4)cc2)CC3)cc1 [Compound 14, 7—(4-methylphenyl)-N-[4—(piperidinomethyl)phenyl]-3,4-dihydronaphthalene-2-carboxamide]
285 to 288 °C | Cc1ccc(-c2ccc3c(c2)C=C(C(=O)Nc2ccc(Cc4ncccc4O)cc2)CCO3)cc1 [Compound 174, N-[4—(3-hydroxypyridin-2-ylmethyl)phenyl]-7—(4-methylphenyl)-2,3-dihydro-1-benzoxepine-4-carboxamide]
159 to 160 °C | O=C(C=Cc1cccc(-c2ccccc2)c1)Nc1ccc(CN2CCCCC2)cc1 [Compound 81, 1—(4—(3-phenylcinnamoylamino)-benzyl)piperidine]
183 to 184 °C | Cc1ccc(-c2ccc3c(c2)C=C(C(=O)Nc2ccc(CNC4CCCCC4)cc2)CCO3)cc1 [Compound 114, N-(4—((cyclohexylamino)methyl)phenyl)-7—(4-methylphenyl)-2,3-dihydro-1-benzoxepine-4-carboxamide]
232 to 237 °C (dec.) | Cc1ccc(-c2ccc3c(c2)C=C(C(=O)Nc2ccc(C[N+](C)(C)C4CCOCC4)cc2)CCO3)cc1.[Cl-]
225 to 227 °C | CCCP(=O)(CCC)Cc1ccc(NC(=O)/C=C/c2cccc(-c3ccc(C)cc3)c2)cc1 [Compound 194, (E)-N-(4-dipropylphosphorylmethylphenyl)-3—(4-methylphenyl)cinnamamide]
157 to 160 °C | Cc1ccc(-c2ccc3nc(C)c(C(=O)Nc4ccc(CN(C)C5CCOCC5)cc4)cc3c2)cc1 [Compound 216, N-[4-[N-methyl-N-(tetrahydropyran-4-yl)aminomethyl]phenyl]-6—(4-methylphenyl)-2-methylquinoline-3-carboxamide]
178 to 179 °C | Cc1ccc(-c2ccc3c(c2)C=C(C(=O)Nc2ccc(CN(C)C4CCOCC4)cc2)CC(c2ccccc2)O3)cc1 (centres unmarked) [Compound 101, 7—(4-methylphenyl)-2-phenyl-N-(4—((N-tetrahydropyran-4-yl-N-methylamino)methyl)phenyl)-2,3-dihydro-1-benzoxepine-4-carboxamide]
220 to 221 °C | CN1CCN(c2ccc(-c3ccc4c(c3)C=C(C(=O)Nc3ccc(CN(C)C5CCOCC5)cc3)CCO4)cc2)CC1 [Compound 124, 7—(4—(4-methylpiperazin-1-yl)phenyl)-N-(4—((N-tetrahydropyran-4-yl-N-methylamino)methyl)phenyl)-2,3-dihydro-1-benzoxepine-4-carboxamide]
282 to 283 °C (dec.) | Cc1ccc(-c2ccc3c(c2)C=C(C(=O)Nc2ccc(CP4(=O)CCCCC4)cc2)CCC3)cc1 [Compound 252, 2-(4-methylphenyl)-N-(4-((1-oxophosphorinane-1-yl)methyl)phenyl)-6,7-dihydro-5H-benzocycloheptene-8-carboxamide]
232 to 233 °C | COc1cccnc1C(O)c1ccc(NC(=O)C2=Cc3cc(-c4ccc(C)cc4)ccc3OCC2)cc1 (centres unmarked) [Compound 169, N-[4-[hydroxy(3-methoxy-pyridin-2-yl)methyl]phenyl]-7—(4-methylphenyl)-2,3-dihydro-1-benzoxepine-4-carboxamide]
214 to 217 °C | COc1ccc(CCN(C)Cc2ccc(NC(=O)/C=C/c3cccc(-c4ccc(C)cc4)c3)cc2)cc1OC.Cl

melting point | Compound
154 to 156 °C | Cc1ccc(-c2cccc(/C=C/C(=O)Nc3ccc(CN4CCCCC4)cc3)c2)cc1 [Compound 70, (E)-N-[4—(piperidinomethyl)phenyl]-3—(4-methylphenyl)cinnamamide]
229 to 230.5 °C | Cc1ccc(-c2ccc3c(c2)C=C(C(=O)Nc2ccc(CN(C)C4CCOCC4)cc2)CCN3C=O)cc1 [Compound 317, 1-formyl-7-(4-methylphenyl)-N-[4-[[N-methyl-N-(tetrahydro-2H-pyran-4-yl)amino]methyl]phenyl]-2,3-dihydro-1-benzazepine-4-carboxamide]
185 to 187 °C | Cc1ccc(-c2ccc3c(c2)C=C(C(=O)Nc2ccc(CN4CCN(CCO)CC4)cc2)CC3)cc1 [Compound 46, N-[4-[1—(2-hydroxyethyl)-4-piperazinylmethyl]phenyl]-7—(4-methylphenyl)-3,4-dihydronaphthalene-2-carboxamide]
163 to 165 °C | Cc1ccc(-c2cccc(/C=C/C(=O)Nc3ccc(CN(C)CC#N)cc3)c2)cc1 [Compound 64, (E)-N-[4-[N-(cyanomethyl)-N-methylaminomethyl]phenyl]-3—(4-methylphenyl)cinnamamide]
175 to 176 °C | Cc1ccc(-c2ccc3c(c2)C=C(C(=O)Nc2ccc(CN4CCCCC4)cc2)CC(C)O3)cc1 (centres unmarked) [Compound 105, 7—(4-methylphenyl)-2-methyl-N-(4—(piperidinomethyl)phenyl)-2,3-dihydro-1-benzoxepine-4-carboxamide]
145 to 146 °C | Cc1ccc(-c2ccc3c(c2)C=C(C(=O)Nc2ccc(CSCc4ccccc4)cc2)CCO3)cc1 [Compound 86, N-(4—(benzylthiomethyl)phenyl)-7—(4-methylphenyl)-2,3-dihydro-1-benzoxepine-4-carboxamide]
233 to 235 °C | CN(Cc1ccc(NC(=O)C2=Cc3cc(-c4ccc(S(C)(=O)=O)cc4)ccc3OCC2)cc1)C1CCOCC1 [Compound 273, 7-(4-methylsulfonylphenyl)-N-[4-[N-methyl-N-(tetra-hydropyran-4-yl)aminomethyl]phenyl]-2,3-dihydro-1-benzoxepine-4-carboxamide]
132 to 134 °C | Cc1ccc(-c2cccc(/C=C/C(=O)Nc3ccc(CN4CCCC(O)C4)cc3)c2)cc1 (centres unmarked) [Compound 67, (E)-N-[4—(3-hydroxypiperidino-methyl)phenyl]-3—(4-methylphenyl)cinnamamide]
147 to 148 °C | Cc1csc(-c2ccc3c(c2)C=C(C(=O)Nc2ccc(CN(C)C4CCOCC4)cc2)CCO3)c1 [Compound 292, N-[4-[N-methyl-N-(tetra-hydropyran-4-yl)aminomethyl]phenyl]-7-(4-methyl-2-thienyl)-2,3-dihydro-1-benzoxepine-4-carboxamide]
220 to 222 °C | Cc1ccc(-c2cccc(/C=C/C(=O)Nc3ccc(-c4ccccn4)cc3)c2)cc1 [Compound 188, (E)-N-[4—(2-pyridyl)phenyl]-3—(4-methylphenyl)cinnamamide]
110 to 112 °C | COCCN(CCOC)Cc1ccc(NC(=O)C2=Cc3cc(-c4ccc(C)cc4)ccc3OCC2)cc1 [Compound 311, N-(4-((N,N-bis(2-methoxyethyl)amino)methyl)phenyl)-7-(4-methylphenyl)-2,3-dihydro-1-benzoxepine-4-carboxamide]
188 to 190 °C | Cc1ccc(-c2csc(/C=C/C(=O)Nc3ccc(CN(C)C4CCOCC4)cc3)c2)cc1 [Compound 212, (E)-N-[4-[N-methyl-N-(tetrahydropyran-4-yl)aminomethyl]-phenyl)-3-[4—(4-methylphenyl)thiophen-2-yl]acrylamide]
147 to 148 °C | Cc1ccc(-c2ccc3c(c2)C=C(C(=O)Nc2ccc(CNCc4ccccc4)cc2)CCO3)cc1 [Compound 117, N-(4—((benzylamino)methyl)phenyl)-7—(4-methylphenyl)-2,3-dihydro-1-benzoxepine-4-carboxamide]
189 to 193 °C | Cc1ccc(-c2ccc3c(c2)C=C(C(=O)Nc2ccc(CNC(CO)CO)cc2)CC3)cc1 [Compound 48, N-[4-[(1,3-dihydroxy-2-propyl)aminomethyl]phenyl]-7—(4-methylphenyl)-3,4-dihydronaphthalene-2-carboxamide]
186 to 187 °C | O=C(Nc1ccc(CN2CCOCC2)cc1)C1=Cc2cc(-c3ccccc3)ccc2CC1 [Compound 8, N-[4—(morpholinomethyl)-phenyl]-7-phenyl-3,4-dihydronaphthalene-2-carboxamide]
174 to 176 °C | CCOc1ccc(-c2ccc3c(c2)C=C(C(=O)Nc2ccc(CN(C)C4CCOCC4)cc2)CCO3)cc1 [Compound 185, 7—(4-ethoxyphenyl)-N-(4-[N-methyl-N-(tetrahydropyran-4-yl)aminomethyl]phenyl]-2,3-dihydro-1-benzoxepine-4-carboxamide]
204 to 207 °C | Cc1ccc(-c2cccc(/C=C/C(=O)Nc3ccc(CN4CCN(Cc5ccc6c(c5)OCO6)CC4)cc3)c2)cc1 [Compound 57, (E)-N-[4-[1—(3,4-methylenedioxybenzyl)-4-piperazinylmethyl]phenyl]-3—(4-methylphenyl)cinnamamide]
